According to the supplement of paper PMC11451515:

Test system: SEM cells
Assay: cell viability relative to DMSO control; higher = less cytotoxic
Details: 48 h
How it was run: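 Viability, reported as a per-plate percentage of DMSO wells with cell-free wells as background, came from CellTiter-Glo One luminescence. Reading took place after 48 h at 37°C. Before that, NOMO1 or SEM (500 cells/well) or P12-Ichikawa (1000 cells/well) leukemia cells, adapted for at least four passages in each medium, were seeded in 1536-well plates (5 μl) and pin-dosed with library compounds in DMSO, 47 μM to 0.79 nM over 11 threefold points.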

[1] = HPLM + 10% dialyzed FBS, 0.000781 µM
[2] = HPLM + 10% dialyzed FBS, 0.00234 µM
[3] = HPLM + 10% dialyzed FBS, 0.00702 µM
[4] = HPLM + 10% dialyzed FBS, 0.0211 µM
[5] = HPLM + 10% dialyzed FBS, 0.0632 µM
[6] = HPLM + 10% dialyzed FBS, 0.19 µM
[7] = HPLM + 10% dialyzed FBS, 0.569 µM
[8] = HPLM + 10% dialyzed FBS, 1.71 µM
[9] = HPLM + 10% dialyzed FBS, 5.12 µM
[10] = HPLM + 10% dialyzed FBS, 15.4 µM
[11] = HPLM + 10% dialyzed FBS, 46.1 µM
[12] = RPMI 5 mM glucose + 10% FBS, 0.000781 µM
[13] = RPMI 5 mM glucose + 10% FBS, 0.00234 µM
[14] = RPMI 5 mM glucose + 10% FBS, 0.00702 µM
[15] = RPMI 5 mM glucose + 10% FBS, 0.0211 µM
[16] = RPMI 5 mM glucose + 10% FBS, 0.0632 µM
[17] = RPMI 5 mM glucose + 10% FBS, 0.19 µM
[18] = RPMI 5 mM glucose + 10% FBS, 0.569 µM
[19] = RPMI 5 mM glucose + 10% FBS, 1.71 µM
[20] = RPMI 5 mM glucose + 10% FBS, 5.12 µM
[21] = RPMI 5 mM glucose + 10% FBS, 15.4 µM
[22] = RPMI 5 mM glucose + 10% FBS, 46.1 µM
[23] = RPMI 5 mM glucose + 10% dialyzed FBS, 0.000781 µM
[24] = RPMI 5 mM glucose + 10% dialyzed FBS, 0.00234 µM
[25] = RPMI 5 mM glucose + 10% dialyzed FBS, 0.00702 µM
[26] = RPMI 5 mM glucose + 10% dialyzed FBS, 0.0211 µM
[27] = RPMI 5 mM glucose + 10% dialyzed FBS, 0.0632 µM
[28] = RPMI 5 mM glucose + 10% dialyzed FBS, 0.19 µM
[29] = RPMI 5 mM glucose + 10% dialyzed FBS, 0.569 µM
[30] = RPMI 5 mM glucose + 10% dialyzed FBS, 1.71 µM
[31] = RPMI 5 mM glucose + 10% dialyzed FBS, 5.12 µM
[32] = RPMI 5 mM glucose + 10% dialyzed FBS, 15.4 µM
[33] = RPMI 5 mM glucose + 10% dialyzed FBS, 46.1 µM

| Structure (SMILES) | cell viability [1] [%] | cell viability [2] [%] | cell viability [3] [%] | cell viability [4] [%] | cell viability [5] [%] | cell viability [6] [%] | cell viability [7] [%] | cell viability [8] [%] | cell viability [9] [%] | cell viability [10] [%] | cell viability [11] [%] | cell viability [12] [%] | cell viability [13] [%] | cell viability [14] [%] | cell viability [15] [%] | cell viability [16] [%] | cell viability [17] [%] | cell viability [18] [%] | cell viability [19] [%] | cell viability [20] [%] | cell viability [21] [%] | cell viability [22] [%] | cell viability [23] [%] | cell viability [24] [%] | cell viability [25] [%] | cell viability [26] [%] | cell viability [27] [%] | cell viability [28] [%] | cell viability [29] [%] | cell viability [30] [%] | cell viability [31] [%] | cell viability [32] [%] | cell viability [33] [%] |
| --- | --- | --- | --- | --- | --- | --- | --- | --- | --- | --- | --- | --- | --- | --- | --- | --- | --- | --- | --- | --- | --- | --- | --- | --- | --- | --- | --- | --- | --- | --- | --- | --- | --- |
| c1cc(-c2cnn3cc(-c4ccc(OCCN5CCCCC5)cc4)cnc23)ccn1 | 69.3 | 58.4 | 94.8 | 34.4 | 32.7 | 31.1 | 27.9 | 96.2 | 88.5 | 8.18 | 30.9 | 103 | 76.7 | 121 | 63.7 | 51.6 | 43.4 | 34.8 | 103 | 105 | 40.4 | 23.3 | 91.5 | 60.9 | 99.8 | 45.4 | 31.8 | 24 | 25.9 | 90 | 78.4 | 42.2 | 23.7 |
| C[C@]1(O)CC(C1)C2=NC(=C3[N]2C=CN=C3N)C4=CC5=C(C=C4)C=CC(=N5)C6=CC=CC=C6 (stereo not given) | 77.3 | 81.7 | 87.6 | 90.4 | 87.1 | 67.6 | 76 | 47.2 | 26.5 | 3.17 | 2.38 | 95.8 | 96.8 | 105 | 103 | 105 | 66.4 | 68.8 | 42.2 | 16.6 | 3.06 | 1.58 | 77.7 | 67.5 | 80.7 | 84 | 87.2 | 55.8 | 72.5 | 42.7 | 24.3 | 3.02 | 1.93 |
| COc1ccccc1[C@H](c1cccc2ccccc12)[C@@](C)(C#N)C(=O)N1CCC(c2cccc(C(F)(F)F)c2)CC1 | 87.3 | 103 | 96.6 | 97.4 | 107 | 103 | 108 | 99.2 | 89.3 | 54.4 | 39.7 | 92.3 | 104 | 102 | 107 | 102 | 114 | 105 | 119 | 111 | 84.7 | 56 | 83.3 | 91.5 | 100 | 99.4 | 90.8 | 104 | 102 | 87.8 | 93.9 | 76.6 | 54.9 |
| CC(=O)N(C)C1(c2ccccc2)CCN(CCC[C@]2(c3ccc(Cl)c(Cl)c3)CCCN(C(=O)c3ccccc3)C2)CC1 | 120 | 129 | 124 | 116 | 123 | 120 | 74.1 | 14.2 | 11.2 | 9.08 | 7.03 | 109 | 130 | 103 | 126 | 123 | 123 | 78.7 | 9.2 | 6.49 | 6.83 | 4.78 | 109 | 145 | 119 | 128 | 139 | 128 | 133 | 18.4 | 12 | 10.6 | 6.46 |
| CC(C(C)N1CC(=O)NC(=O)C1)N1CC(=O)NC(=O)C1 (stereo not given) | 97.2 | 136 | 116 | 125 | 116 | 128 | 123 | 106 | 95.2 | 58.4 | 40.5 | 73.4 | 79.9 | 101 | 102 | 92 | 104 | 80.8 | 60.1 | 49 | 31 | 19.7 | 86 | 93.3 | 120 | 134 | 122 | 115 | 128 | 91.3 | 65.7 | 39.1 | 35.1 |
| C=CC(=O)Nc1cccc(Sc2nc(Nc3ccc(N4CCN(C)CC4)cc3)ncc2Cl)c1 | 91.4 | 105 | 113 | 116 | 114 | 116 | 104 | 86.4 | 71.1 | 86 | 3.8 | 53.5 | 68.7 | 81.6 | 69.1 | 82.7 | 81.2 | 91.7 | 60.6 | 41.3 | 65.9 | 2.06 | 88.8 | 98.2 | 97.6 | 99.9 | 118 | 114 | 72.9 | 80.9 | 57.3 | 58.5 | 2.75 |
| NC(=O)c1cnccn1 | 104 | 116 | 117 | 106 | 120 | 120 | 123 | 125 | 119 | 122 | 118 | 108 | 112 | 133 | 105 | 116 | 129 | 127 | 121 | 119 | 120 | 119 | – | – | – | – | – | – | – | – | – | – | – |
